Target: T1, C1101 in reticulon 4 (RTN4, Uniprot ID Q9NQC3-1) (Homo sapiens, UniProt Q9NQC3)
T1 construct: endogenous in cells; host or cells: SW620 colorectal cancer cell lysate
T1 sequence (Q9NQC3 1-1192): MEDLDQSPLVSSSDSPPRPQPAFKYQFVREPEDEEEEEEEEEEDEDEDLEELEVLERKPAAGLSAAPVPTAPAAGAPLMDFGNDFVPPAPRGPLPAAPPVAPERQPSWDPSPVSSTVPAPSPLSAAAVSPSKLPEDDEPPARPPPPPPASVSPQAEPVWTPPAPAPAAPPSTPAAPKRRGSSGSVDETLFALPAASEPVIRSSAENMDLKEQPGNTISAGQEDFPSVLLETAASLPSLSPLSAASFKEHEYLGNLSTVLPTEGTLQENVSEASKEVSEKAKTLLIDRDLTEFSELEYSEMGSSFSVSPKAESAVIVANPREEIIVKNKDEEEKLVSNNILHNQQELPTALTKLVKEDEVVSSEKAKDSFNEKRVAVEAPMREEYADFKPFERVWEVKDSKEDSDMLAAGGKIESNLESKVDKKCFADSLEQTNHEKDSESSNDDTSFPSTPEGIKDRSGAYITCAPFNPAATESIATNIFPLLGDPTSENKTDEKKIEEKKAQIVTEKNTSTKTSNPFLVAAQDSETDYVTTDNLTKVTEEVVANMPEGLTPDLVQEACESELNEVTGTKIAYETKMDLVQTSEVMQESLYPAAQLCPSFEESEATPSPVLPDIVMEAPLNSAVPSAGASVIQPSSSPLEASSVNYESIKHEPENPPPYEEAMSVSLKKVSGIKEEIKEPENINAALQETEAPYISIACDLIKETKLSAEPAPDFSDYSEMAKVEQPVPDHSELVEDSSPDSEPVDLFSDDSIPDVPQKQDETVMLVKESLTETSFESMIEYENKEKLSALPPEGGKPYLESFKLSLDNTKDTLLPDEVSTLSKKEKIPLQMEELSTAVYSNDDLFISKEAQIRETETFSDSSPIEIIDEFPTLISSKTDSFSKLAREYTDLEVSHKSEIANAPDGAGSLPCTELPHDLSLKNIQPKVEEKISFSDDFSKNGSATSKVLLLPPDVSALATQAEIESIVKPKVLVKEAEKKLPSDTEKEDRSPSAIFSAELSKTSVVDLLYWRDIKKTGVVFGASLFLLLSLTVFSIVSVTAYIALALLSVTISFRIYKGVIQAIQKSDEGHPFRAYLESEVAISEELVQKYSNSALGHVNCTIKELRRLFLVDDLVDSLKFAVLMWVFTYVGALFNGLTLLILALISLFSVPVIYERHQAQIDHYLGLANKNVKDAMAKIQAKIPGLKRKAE
Experiment: Competitive isoTOP-ABPP against IAyne labeling in SW620 proteomes: RTN4 C1101
Type: binding
Text: We next performed isoTOP-ABPP studies to identify the direct targets of these lead compounds. We competed either vehicle or DKM 3-30 against labeling of SW620 proteomes with a broad cysteine-reactive probe, iodoacetamide-alkyne (IAyne), followed by appending probe-labeled proteins with a biotin-azide tag bearing a TEV protease recognition site and an isotopically light (for vehicle-treated) or heavy (for fragment-treated) tags via copper catalyzed azide-alkyne cycloaddition (CuAAC)^6,9. We then combined control and treated proteomes in a 1:1 ratio, enriched probe-labeled proteins with avidin, and digested proteomes with trypsin. Avidin-enriched probe-modified tryptic peptides were released by TEV protease digestion for subsequent quantitative proteomic analysis. Through these studies, we identified the top hit for DKM 3-30 as C1101 in reticulon 4 (RTN4, Uniprot ID Q9NQC3-1) with a light to heavy ratio of 3.0 (FIG. 2A; Table 2).
IsoTOP-ABPP Analysis. IsoTOP-ABPP analyses were performed as previously described^5-7. For competitive IsoTOP-ABPP, SW620 cell lysates were pre-incubated with DMSO vehicle or DKM 3-30 (50 μM) for 30 min at 37° C. in phosphate-buffered saline (PBS), and then labeled with IAyne (100 μM) for 1 h at room temperature. […]

**Q.** How did the “light to heavy ratio” value (DKM 3-30 50 μM, 30 min 37° C., then IAyne 100 μM, ratio >3 indicates bound sites) turn out when C=CC(=O)Nc1ccc(Oc2ccc(Cl)cc2)cc1 [DKM 3-30, N-(4-(4-chlorophenoxy)phenyl)acrylamide] was run?
**A.** 3.0

**Q.** What about the “Ave area ratio (light to heavy ratio), peptide YSNSALGHVNC*TIK, C1101, Q9NQC3” value (SW620 cell proteomes pre-treated with DMSO (light) or ligand 50 μM (heavy) 30 min at 37° C., then IAyne 100 μM 1h, averaged over runs) of the same compound?
**A.** 3.04
